18 compounds from US20080207614A1, “QUINAZOLINE DERIVATIVES FOR THE TREATMENT AND PREVENTION OF DIABETES AND OBESITY” (SK CHEMICALS CO., LTD., priority 2004, published 2008) can be followed below.

The structures appear in SMILES notation.

The test system of the first assay is C2C12 muscle cells. Briefly: Analysis of glucose absorption (2-deoxyglucose) in differentiated C2C12 muscle cells. The note with it: test materials 10 μM, times relative to control group. Format: cell-based. The method, boiled down: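 Differentiated C2C12 myotubes (6 days in 1% serum) held 3 h in KRB with 5 mM glucose, then given test material at 10 μM. After 30 min, 0.2 μCi 2-deoxyglucose added for 20 min; uptake measured by radioactive counting of NaOH lysates.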
Compound `Brc1cccc(Nc2nc(-c3ccccc3)nc3ccccc23)c1` [Compound 83, (3-Bromophenyl)-(2-phenylquinazolino-4-yl)-amine] gave a Glucose absorption of 0.7.
On the same count and under the same terms, with `c1ccc(CCCCCNc2nc(-c3ccccc3)nc3ccccc23)cc1` [Compound 53, (5-Phenyl-pentyl)-(2-phenylquinazolino-4-yl)-amine] the figure was 1.2; with `Oc1ccccc1CCNc1nc(-c2ccccc2)nc2ccccc12` [Compound 152, 2-[2-(2-Phenylquinazolino-4-ylamino)-ethyl]-phenol], 2.4.
On to `COc1ccccc1Nc1nc(-c2ccccc2)nc2ccccc12` [Compound 77, (2-Methoxyphenyl)-(2-phenylquinazolino-4-yl)-amine], for which the Glucose absorption turned out to be 1.4.
`c1ccc(CCCCNc2nc(-c3cccnc3)nc3ccccc23)cc1` [Compound 240, (4-Phenylbutyl)-(2-pyridino-3-ylquinazolino-4-yl)-amine] came in with a Glucose absorption of 1.0.
On the same count and under the same terms, to `c1ccc(-c2nc(NCc3ccncc3)c3ccccc3n2)cc1` [Compound 141, (2-Phenylquinazolino-4-yl)-pyridino-4-ylmethylamine] belongs 2.1; to `O=C1CCCN1CCCNc1nc(-c2ccccc2)nc2ccccc12` [Compound 150, 1-[3-(2-Phenylquinazolino-4-ylamino)-propyl]-pyrrolidino-2-one], 2.6.
Same read-out and setting: to `FC(F)(F)c1cccc(CCNc2nc(-c3ccccc3)nc3ccccc23)c1` [Compound 64, (2-Phenylquinazolino-4-yl)-[2-(3-trifluoromethyl-phenyl)-ethyl]-amine] belongs 1.2; to `c1ccc(Cc2nc(NCc3cccc4ccccc34)c3ccccc3n2)cc1` [Compound 217, (2-Benzylquinazolino-4-yl)-naphthaleno-1-ylmethylamine], 1.2.

The next assay relates to AMPK. Briefly: Measurement of AMPK activity by Western blot in C2C12 cells. Format: cell-based. Also on record: key to AMPK activity (degree of phosphorylation of serine-79 and threonine-172): fold increase in threonine-172 phosphorylation. The note with it: 10 μM for 50 minutes, no superscript: Western blot of serine-79 and threonine-172 phosphorylation. The method, then: C2C12 cells were cultured and differentiated in the same manner as in Experimental Example 1. Treatment with the test materials was also performed in the same manner as in Experimental Example 1 (10 μM for 50 minutes). The culture medium was removed and the cells were washed for 2 times with PBS and protein extracts were obtained using a lysis buffer (50 mM tris-HCl, pH 7.4, 1% NP-40, 0.25% sodium deoxycholate, 150 mM NaCl, 1 mM EDTA, 1 mM PMSF, 1 mM sodium o-vanadate, 1 mM NaF, 1 μg/mL apronitin, 1 μg/mL leu-peptin, 1 μg/mL pepstatin). The AMPK activity was determined from Western blot analysis of the degree of phosphorylation of serine-79 […] acetyl CoA carboxylase and the degree of phosphorylation of threonine-172. The amount of ERK (extracellular signal regulated protein kinase) was confirmed by Western blot in order to quantify the proteins.
The result of Western blot analysis is given in Table 3 below, wherein “strong” means that the degree of phosphorylation of threonine-172 increased by 3 times or more, “mild” means that the degree of phosphorylation of threonine-172 increased by 1 to 3 times and “weak” means that the degree of phosphorylation of threonine-172 increased by less than 1 time.
On the technique in general: A western blot detects proteins with antibodies after separation by electrophoresis.
On to `COc1cc(CNc2nc(N3CCOCC3)nc3ccccc23)cc(OC)c1OC` [Compound 313, (2-Morpholino-4-ylquinazolino-4-yl)-(3,4,5-trimethoxybenzyl)-amine], for which the “AMPK activity (degree of phosphorylation of serine-79 and threonine-172)” value (“AMPK activity” below) amounted to 0.1.
Take `COc1ccc(CNc2nc(-c3ccco3)nc3ccccc23)cc1OC` [Compound 344, (3,4-Dimethoxybenzyl)-(2-furano-2-ylquinazolino-4-yl)-amine]: the “AMPK activity” value was 0.4.
Same read-out and setting: to `COc1cccc(CNc2nc(-c3cccs3)nc3ccccc23)c1` [Compound 350, (3-Methoxybenzyl)-(2-thiopenyl-2-ylquinazolino-4-yl)-amine] belongs 0.6; to `COc1ccc(OC)c(CNc2nc(N3CCOCC3)nc3ccccc23)c1` [Compound 297, (2,5-Dimethoxybenzyl)-(2-morpholino-4-ylquinazolino-4-yl)-amine], 0.8; to `COc1ccc(OC)c(CNc2nc(N3CCCC3)nc3ccccc23)c1` [Compound 295, (2,5-Dimethoxybenzyl)-(2-pyrrolidino-1-ylquinazolino-4-yl)-amine], 0.2.
On the same count and under the same terms, with `CCCc1nc(NCc2c(OC)cc(OC)cc2OC)c2ccccc2n1` [Compound 403, (2-Propylquinazolino-4-yl)-(2,4,6-trimethoxybenzyl)-amine] the figure was 1.3.
With `CCOc1nc(NCc2ccc(OC)cc2OC)c2ccccc2n1` [Compound 319, (2,4-Dimethoxybenzyl)-(2-ethoxyquinazolino-4-yl)-amine], the “AMPK activity” value is reported as 1.5.
`COc1cccc(CNc2nc(N3CCOCC3)nc3ccccc23)c1OC` [Compound 289, (2,3-Dimethoxybenzyl)-(2-morpholino-4-ylquinazolino-4-yl)-amine]: the “AMPK activity” value is 1.5.
Still for that read-out and setting: to `COc1ccc(OC)c(CNc2nc(-c3ccco3)nc3ccccc23)c1` [Compound 347, (2,5-Dimethoxybenzyl)-(2-furano-2-ylquinazolino-4-yl)-amine] belongs 1.2.
